According to patent publication US20250262336A1, “[177LU] LUTETIUM-PSMA I&T COMPOSITION AND DOSIMETRY, KIT, METHOD OF MAKING, AND METHOD OF USING THEREOF” (Curium US LLC, priority 2023, published 2025):

Experiment: Cycle 1 normal organ dosimetry (SPECT/CT, TIACs, OLINDA 2.2.3)
Assay type: in vivo, human
Settings: for Absorbed Dose in Cycle 1, Mean / Absorbed Dose in Cycle 1, max / Absorbed Dose in Cycle 1, min: N = 16 patients imaged at cycle 1 and 3; for Absorbed Dose, Mean / Absorbed Dose, max / Absorbed Dose, median / Absorbed Dose, min: Cycle 1, n = 26
Protocol: This Example presents the biodistribution, dosimetry, and pharmacokinetics (PK) results of a PK/Dosimetry sub-study performed as part of a Phase III trial. Twenty-seven (27) patients were administered a target activity of 7.4±10% GBq of ^177Lu-PSMA-I&T and underwent single photon emission computed tomography (SPECT)/computed tomography (CT) imaging at four timepoints (4 h, 24 h, 48 h, and 168 h). Image data was analysed to compute time-activity curves (TACs) and subsequently time-integrated activity coefficients (TIACs) in each organ of interest and in organs showing appreciable and meaningful ^177Lu-PSMA-I&T activity. Organ Level Internal Dose Assessment (OLINDA 2.2.3) was used to compute organ and whole body absorbed radiation doses for each patient.
All participating sites underwent a rigorous site setup process during which all dose calibrators, scanners, and gamma counters used in the sub-study were calibrated. Sites were allowed to enroll patients in the sub-study only after the completion and approval of all site setup processes by Invicro. Patients underwent SPECT/CT imaging, with anatomical coverage typically extending from the salivary glands to the pelvis, following the administration of a targeted 7.4±10% GBq of ^177Lu-PSMA-I&T at cycle 1. SPECT/CT imaging was performed at four timepoints: 4 h, 24 h, 48 h, and 168 h post-injection. Additionally, a subset of patients imaged at Cycle 1 (16 out of 27), were also imaged at Cycle 3 (Table 2).
In general, raw projection data was acquired into a 128×128 matrix with medium energy general purpose (MEGP) collimation using a step and shoot acquisition mode, acquiring 60 projections per detector (180 degrees rotation per detector), 20 seconds per projection, with an acquisition zoom of 1.0, and a 20% (±10%) energy window centered over 208 keV.
A low-dose CT scan was performed prior to beginning the SPECT scan for attenuation correction. Sites were instructed to use the Institutional standard parameters for acquisition of the low-dose CT. Institutional standard reconstruction parameters were used. Scatter correction was required to be applied using a 20% (±10%) scatter window centered over 170 keV.
The imaging data was analyzed using Invicro's VivoQuant software, a validated software used in a 21 CFR § 11-compliant workflow. The general quantification approach was based on the principles detailed in the Medical Internal Radiation Dose (MIRD) Pamphlet No. 16, No 23, and No 26 as appropriate.
SPECT images were calibrated in units of Becquerel (Bq) using a calibration factor derived from a source of known activity, measured during site set up with the same acquisition and reconstruction parameters employed for patient imaging. A patient-specific calibration factor was also derived at each clinical time point after acquisition of the patient SPECT/CT. As a quality control measure, if the patient-specific calibration factor differed by more than 10% from the site set up calibration factor, an investigation was conducted.
Volume of interest (VOI) (kidneys, bladder, liver, lumbar vertebrae L2-L4, lacrimal glands, salivary glands [parotid and submandibular glands], and whole body) were delineated on each dataset by a trained image analyst. […] Organs were segmented either by drawing the entire contour of the organ, or by placing a sphere in a representative region of the organ and then multiplying by the organ's effective mass (based on patient's height and weight). Segmentation methods for each organ are specified in Table 3 and were consistently applied to each patient.
Clearance of the radiopharmaceutical was derived from a data-appropriate fit of each organ's TAC. Depending on the TAC's shape, the data was fitted with the sum of one, two, or three exponentials, or using a rise and fall model. Fitting was performed with in-house Python software. TIACs were calculated through analytical integration of the curve fit extrapolated to infinity. […]

[1] = cycle 1, target 7.4±10% GBq, mean±SD, patient 42-030 excluded

- Absorbed Dose in Cycle 1, Mean (Prostate): 0.02 Gy/GBq
- Absorbed Dose in Cycle 1, max (Prostate): 0.07 Gy/GBq
- Absorbed Dose in Cycle 1, min (Prostate): 0.01 Gy/GBq
- Absorbed Dose, Mean (Rectum): 0.44 Gy/GBq
- Absorbed Dose, max (Rectum): 1.46 Gy/GBq
- Absorbed Dose, median (Rectum): 0.39 Gy/GBq
- Absorbed Dose, min (Rectum): 0.01 Gy/GBq
- Absorbed Dose in Cycle 1, Mean (Rectum): 0.50 Gy/GBq
- Absorbed Dose in Cycle 1, max (Rectum): 1.46 Gy/GBq
- Absorbed Dose in Cycle 1, min (Rectum): 0.01 Gy/GBq
- Absorbed Dose, Mean (Red Marrow): 0.08 Gy/GBq
- Absorbed Dose, max (Red Marrow): 0.49 Gy/GBq
- Absorbed Dose, median (Red Marrow): 0.03 Gy/GBq
- Absorbed Dose, min (Red Marrow): 0.00 Gy/GBq
- Absorbed Dose in Cycle 1, Mean (Red Marrow): 0.05 Gy/GBq
- Absorbed Dose in Cycle 1, max (Red Marrow): 0.28 Gy/GBq
- Absorbed Dose in Cycle 1, min (Red Marrow): 0.00 Gy/GBq
- Absorbed Dose, Mean (Right Colon): 0.25 Gy/GBq
- Absorbed Dose, max (Right Colon): 0.82 Gy/GBq
- Absorbed Dose, median (Right Colon): 0.22 Gy/GBq
- Absorbed Dose, min (Right Colon): 0.01 Gy/GBq
- Absorbed Dose in Cycle 1, Mean (Right Colon): 0.28 Gy/GBq
- Absorbed Dose in Cycle 1, max (Right Colon): 0.82 Gy/GBq
- Absorbed Dose in Cycle 1, min (Right Colon): 0.01 Gy/GBq
- Absorbed Dose, Mean (Salivary Glands): 0.19 Gy/GBq
- Absorbed Dose, max (Salivary Glands): 0.80 Gy/GBq
- Absorbed Dose, median (Salivary Glands): 0.15 Gy/GBq
- Absorbed Dose, min (Salivary Glands): 0.03 Gy/GBq
- Absorbed Dose in Cycle 1, Mean (Salivary Glands): 0.17 Gy/GBq
- Absorbed Dose in Cycle 1, max (Salivary Glands): 0.80 Gy/GBq
- Absorbed Dose in Cycle 1, min (Salivary Glands): 0.03 Gy/GBq
- Absorbed Dose, Mean (Small intestine): 0.05 Gy/GBq
- Absorbed Dose, max (Small intestine): 0.15 Gy/GBq
- Absorbed Dose, median (Small intestine): 0.04 Gy/GBq
- Absorbed Dose, min (Small intestine): 0.01 Gy/GBq
- Absorbed Dose in Cycle 1, Mean (Small intestine): 0.06 Gy/GBq
- Absorbed Dose in Cycle 1, max (Small intestine): 0.15 Gy/GBq
- Absorbed Dose in Cycle 1, min (Small intestine): 0.01 Gy/GBq
- Absorbed Dose, Mean (Spleen): 0.03 Gy/GBq
- Absorbed Dose, max (Spleen): 0.11 Gy/GBq
- Absorbed Dose, median (Spleen): 0.02 Gy/GBq
- Absorbed Dose, min (Spleen): 0.01 Gy/GBq
- Absorbed Dose in Cycle 1, Mean (Spleen): 0.03 Gy/GBq
- Absorbed Dose in Cycle 1, max (Spleen): 0.11 Gy/GBq
- Absorbed Dose in Cycle 1, min (Spleen): 0.01 Gy/GBq
- Absorbed Dose, Mean (Stomach Wall): 0.02 Gy/GBq
- Absorbed Dose, max (Stomach Wall): 0.07 Gy/GBq
- Absorbed Dose, median (Stomach Wall): 0.01 Gy/GBq
- Absorbed Dose, min (Stomach Wall): 0.00 Gy/GBq
- Absorbed Dose in Cycle 1, Mean (Stomach Wall): 0.02 Gy/GBq
- Absorbed Dose in Cycle 1, max (Stomach Wall): 0.07 Gy/GBq
- Absorbed Dose in Cycle 1, min (Stomach Wall): 0.00 Gy/GBq
- Absorbed Dose, Mean (Testes): 0.01 Gy/GBq
- Absorbed Dose, max (Testes): 0.07 Gy/GBq
- Absorbed Dose, median (Testes): 0.01 Gy/GBq
- Absorbed Dose, min (Testes): 0.00 Gy/GBq
- Absorbed Dose in Cycle 1, Mean (Testes): 0.01 Gy/GBq
- Absorbed Dose in Cycle 1, max (Testes): 0.07 Gy/GBq
- Absorbed Dose in Cycle 1, min (Testes): 0.00 Gy/GBq
- Absorbed Dose, Mean (Thymus): 0.01 Gy/GBq
- Absorbed Dose, max (Thymus): 0.07 Gy/GBq
- Absorbed Dose, median (Thymus): 0.01 Gy/GBq
- Absorbed Dose, min (Thymus): 0.00 Gy/GBq
- Absorbed Dose in Cycle 1, Mean (Thymus): 0.01 Gy/GBq
- Absorbed Dose in Cycle 1, max (Thymus): 0.07 Gy/GBq
- Absorbed Dose in Cycle 1, min (Thymus): 0.00 Gy/GBq
- Absorbed Dose, Mean (Thyroid): 0.01 Gy/GBq
- Absorbed Dose, max (Thyroid): 0.07 Gy/GBq
- Absorbed Dose, median (Thyroid): 0.01 Gy/GBq
- Absorbed Dose, min (Thyroid): 0.00 Gy/GBq
- Absorbed Dose in Cycle 1, Mean (Thyroid): 0.01 Gy/GBq
- Absorbed Dose in Cycle 1, max (Thyroid): 0.07 Gy/GBq
- Absorbed Dose in Cycle 1, min (Thyroid): 0.00 Gy/GBq
- Absorbed Dose, Mean (Total Body): 0.02 Gy/GBq
- Absorbed Dose, max (Total Body): 0.09 Gy/GBq
- Absorbed Dose, median (Total Body): 0.02 Gy/GBq
- Absorbed Dose, min (Total Body): 0.01 Gy/GBq
- Absorbed Dose in Cycle 1, Mean (Total Body): 0.02 Gy/GBq
- Absorbed Dose in Cycle 1, max (Total Body): 0.09 Gy/GBq
- Absorbed Dose in Cycle 1, min (Total Body): 0.01 Gy/GBq
- Absorbed Dose, Mean (Urinary Bladder wall): 0.41 Gy/GBq
- Absorbed Dose, max (Urinary Bladder wall): 0.50 Gy/GBq
- Absorbed Dose, median (Urinary Bladder wall): 0.41 Gy/GBq
- Absorbed Dose, min (Urinary Bladder wall): 0.33 Gy/GBq
- Absorbed Dose in Cycle 1, Mean (Urinary Bladder wall): 0.40 Gy/GBq
- Absorbed Dose in Cycle 1, max (Urinary Bladder wall): 0.47 Gy/GBq
- Absorbed Dose in Cycle 1, min (Urinary Bladder wall): 0.33 Gy/GBq
- mean red marrow absorbed dose, remaining 20 patients (cycle 1, excluding six patients with unusually high marrow doses and the patient with a superscan): 0.02±0.02 Gy/GBq
- mean red marrow (bone marrow) absorbed radiation dose (cycle 1, image-based method (L2-L4), mean±SD, patient 42-030 excluded): 0.08±0.12 Gy/GBq
- absorbed radiation dose per gram of tissue, kidneys [1]: 0.41±0.15 Gy/GBq
- absorbed radiation dose per gram of tissue, lacrimal glands [1]: 0.40±0.36 Gy/GBq
- absorbed radiation dose per gram of tissue, left colon [1]: 0.47±0.31 Gy/GBq
- absorbed radiation dose per gram of tissue, rectum [1]: 0.44±0.30 Gy/GBq
- absorbed radiation dose per gram of tissue, urinary bladder [1]: 0.41±0.05 Gy/GBq
- absorbed radiation dose per gram of tissue, salivary glands (cycle 1, target 7.4±10% GBq, mean±SD, patients 42-030 and 12-004 excluded): 0.19±0.16 Gy/GBq
SMILES: O=C(O)CC[C@H](NC(=O)N[C@@H](CCCCNC(=O)CCCCCCC(=O)NCCCC[C@@H](NC(=O)[C@@H](Cc1ccccc1)NC(=O)[C@@H](Cc1ccc(O)c(I)c1)NC(=O)CC[C@H](C(=O)O)N1CCN(CC(=O)O)CCN(CC(=O)O)CCN(CC(=O)O)CC1)C(=O)O)C(=O)O)C(=O)O [^177Lu-PSMA-I&T, (3S,7 S,26R,29R,32R,37R)-29-benzyl-32-(4-hydroxy-3-iodobenzyl)-5,13,20,28,31,34-hexaoxo-37-(4,7,10-tris(carboxymethyl)-1,4,7,10-tetraazacyclododecan-1-yl)-4,6,12,21,27,30,33-heptaazaheptatriacontane-1,3,7,26,37-pentacarboxylic acid; lutetium-177 (III), metal not drawn]
